# Assay results reported in US10544156B2, “Hemi-synthetic trilobine analogs for use as a drug” (PIERRE FABRE MEDICAMENT, priority 2015, dated 2020).
# Tests used:
# [1] = target: T1, His-DNMT1 (182 kDa, human) (Homo sapiens, UniProt P26358); experiment: hDNMT1 assay ([methyl-3H] SAM Flashplate); type: biochemical; details: for inhibition at 10 µM: read-out: hDNMT 1 inhibition, Inhibition (%) 10 μM; for inhibition at 32 µM: read-out: hDNMT 1 inhibition, Inhibition (%) 32 μM
# T1 construct: His; made in house
# Procedure: His-DNMT1 (182 kDa, human) was cloned, expressed and purified as described (Halby et al. Chem Bio Chem 2012, 13, 157-165). The reaction was performed in a 10 μL total reaction volume in low volume NBS™ 384-well microplates (Corning), containing the tested compound (up to 1% DMSO), 1 μM of a SAM/[methyl-^3H] SAM (3TBq/mmol, PerkinElmer) mix in a ratio of 3-to-1 (isotopic dilution 1*:3), 0.3 μM of biotinylated hemimethylated DNA duplex (5′-GATmCGCmCGATGmCGmCGAATmCGmCGATmCGATGmCGAT-3′ and BIOT-5′-[…]-3′), and 90 nM of DNMT1 in methylation buffer (20 mM HEPES pH 7.2, 1 mM EDTA, 50 mM KCl, 25 μg/mL BSA). The reaction was incubated at 37° C. for 2 hours. 8 μL are then transferred into a streptavidin 96-well scintillant coated Flashplate™ (PerkinElmer) containing 190 μL of 20 μM SAH in 50 mM Tris-HCl pH 7.4. The Flashplate™ was agitated at room temperature for 1 hour and read in 200 μL of 50 mM Tris-HCl pH 7.4 on TopCount NXT (PerkinElmer). The percentage of inhibition is reported. The formula used to calculate the percentage of inhibition is [(X−Y)/X]×100, where X is the signal determined in the absence of the inhibitor and Y is the signal obtained in the presence of the inhibitor.
# [2] = test system: luciferase reporter gene under control of methylated CMV promoter in KG-1 cells; experiment: CMV-luc reexpression in KG-1 cells; type: cell-based, human; details: for Induction Fold (IF) of luciferase gene reporter in KG-1 CMV-Luc: 24 h, vs DMSO; for IF-24 h, KG1 CMV-Luc model: at 5 μM, 24 h (Table 5)
# Procedure: KG-1 cells were stably transfected with the firefly luciferase reporter gene (luc+ from pGL3; Promega) under the control of the cytomegalovirus (CMV) promoter (from pEGFP-N1; Clontech Laboratories Inc.) partially methylated (50%). 20,000 cells per well were seeded in a 96-well plate. After 24 h incubation in the presence of the test compound or solvant (DMSO), the induction of the promoter was measured by quantification of the luciferase signal with the Brite-lite assay system (PerkinElmer) according to the manufacturer's protocol. The luminescence was measured on an EnVision multilabel plate reader (PerkinElmer), and the data are expressed as the fold induction as compared with the DMSO control. The mean of three experiments and the standard error is reported.
# [3] = test system: CMV promoter in KG-1-Luc cells; experiment: CMV promoter analysis by NOMe-Seq (CpG methylation and chromatin accessibility); type: cell-based, human; details: at 5 μM, 24 h; for DNA demethylation, KG1 CMV-Luc model: methylated cytosine treated vs non treated; for Chromatin accessibility, KG1 CMV-Luc model: ratio of GpC methylation
# Procedure: Using the Nucleosome Occupancy and Methylome Sequencing (NOMe-Seq) technique, the methylation status of the CMV promoter and the position of the nucleosomes on such promoter were both analysed.
# NOMe-seq is a modified version of the methylation-dependent single promoter assay described by Miranda et al. (Curr Protoc Mol Biol. 2010 21.17.1-16) and the methylase-based DNA assay was performed as previously described with minor modifications. After nuclei extraction, GpC DNA methyltransferase M.CviPI (New England Biolabs) reactions were done in M.CviPI reaction buffer. GpC methyltransferase treatment was followed by DNA extraction, sodium bisulfite conversion, PCR amplification of the region of interest, cloning, and sequencing of individual clones to reveal the structure of single replicas as functional units. After treatment with the compounds or with DMSO, KG-1-Luc cells were centrifuged for 5 min at 500×g. Cell pellets were washed in ice-cold PBS, resuspended in 1 mL of ice-cold nuclei buffer [10 mM Tris (pH 7.4), 10 mM NaCl, 3 mM MgCl2, 0.1 mM EDTA, and 0.5% Nonidet P-40, plus protease inhibitors] per 2×10^6 cells, and incubated on ice for 10 min. Nuclei were recovered by centrifugation at 900×g for 5 min, washed twice in nuclei wash buffer [10 mM Tris (pH 7.4), 10 mM NaCl, […], and 0.1 mM EDTA containing protease inhibitors], and resuspended with 200 μL in 1×M.CviPI reaction buffer supplemented with 0.3 M sucrose, 160 μM SAM (New England Biolabs). 100 μL of purified genomic DNA were treated with 100 U of M.CviPI for 15 min at 37° C. in 200 μL final volume. The other part of 100 μL of purified genomic DNA were not treated with 100 U of M.CviPI but just incubated for 15 min at 37° C. to obtain CpG methylation profile. Reactions were stopped by the addition of an equal volume of stop solution [20 mM Tris.HCl (pH 7.9), 600 mM NaCl, 1% SDS, 10 mM EDTA, and 400 μg/mL Proteinase K] and incubated at 55° C. overnight. DNA was purified by phenol/chloroform extraction and ethanol precipitation. Bisulfite conversion was performed with the EZ DNA Methylation-Gold Kit (Zymo Research). Bisulfited DNA was eluted with 12 μL of water and 8 μL were used for CMV amplification.
# The CMV promoter DNA amplification was carried on 8.3 μL eluted bisulfited DNA in 20 μL PCR reaction containing 1×KAPA2G Buffer A, 2.0 mM MgCl2, 200 μM dNTPs, 125 nM each primer and 1.0 units KAPA2G™ Robust HotStart DNA Polymerase (KapaBiosystems) on C1000 Touch™ thermal cycler 95° C. 3 min following by 95° C. for 20 sec, 55° C. for 30 sec, 72° C. for 30 sec×40 cycles and final extension at 72° C. 1 min. PCR fragments were quality controlled by agarose gel electrophoresis.
# Steps of cloning and sequencing were as those described previously except that M13 PCR was used to amplify the cloned sequence in 20 μL PCR reaction volume containing 1×KAPA2G Buffer B, 2.0 mM MgCl2, 200 μM dNTPs, 125 nM each primer and 1.0 U KAPA2G™ Robust HotStart DNA Polymerase (KapaBiosystems) on C1000 Touch™ thermal cycler 95° C. 3 min following by 95° C. for 20 sec, 55° C. for 30 sec, 72° C. for 30 sec×40 cycles and final extension at 72° C. 1 min.
# Genomic alignment and bisulfite sequence analysis was performed largely as previously described (Berman et al. Nat Genet 2012, 44, 40-6).
# BISMA (Bisulfite Sequencing DNA Methylation Analysis) software was used for CpG methylation analysis of primary bisulfite sequencing data from subcloned individual molecules (Rohde et al. BMC Bioinformatics 2010, 11, 230). Methyl Viewer (Pardo et al. Nucleic Acids Res 2011, 39, e5) was used to obtain GC methylation results and nucleosome occupancy. The ratio of methylation is representative of the chromatin accessibility by M.CviPI and nucleosome occupancy. The combined methylation status for each clone by CpG (BISMA) or GpC (Methyl Viewer) site has been assembled. […]
# T1 sequence (P26358 whole entry): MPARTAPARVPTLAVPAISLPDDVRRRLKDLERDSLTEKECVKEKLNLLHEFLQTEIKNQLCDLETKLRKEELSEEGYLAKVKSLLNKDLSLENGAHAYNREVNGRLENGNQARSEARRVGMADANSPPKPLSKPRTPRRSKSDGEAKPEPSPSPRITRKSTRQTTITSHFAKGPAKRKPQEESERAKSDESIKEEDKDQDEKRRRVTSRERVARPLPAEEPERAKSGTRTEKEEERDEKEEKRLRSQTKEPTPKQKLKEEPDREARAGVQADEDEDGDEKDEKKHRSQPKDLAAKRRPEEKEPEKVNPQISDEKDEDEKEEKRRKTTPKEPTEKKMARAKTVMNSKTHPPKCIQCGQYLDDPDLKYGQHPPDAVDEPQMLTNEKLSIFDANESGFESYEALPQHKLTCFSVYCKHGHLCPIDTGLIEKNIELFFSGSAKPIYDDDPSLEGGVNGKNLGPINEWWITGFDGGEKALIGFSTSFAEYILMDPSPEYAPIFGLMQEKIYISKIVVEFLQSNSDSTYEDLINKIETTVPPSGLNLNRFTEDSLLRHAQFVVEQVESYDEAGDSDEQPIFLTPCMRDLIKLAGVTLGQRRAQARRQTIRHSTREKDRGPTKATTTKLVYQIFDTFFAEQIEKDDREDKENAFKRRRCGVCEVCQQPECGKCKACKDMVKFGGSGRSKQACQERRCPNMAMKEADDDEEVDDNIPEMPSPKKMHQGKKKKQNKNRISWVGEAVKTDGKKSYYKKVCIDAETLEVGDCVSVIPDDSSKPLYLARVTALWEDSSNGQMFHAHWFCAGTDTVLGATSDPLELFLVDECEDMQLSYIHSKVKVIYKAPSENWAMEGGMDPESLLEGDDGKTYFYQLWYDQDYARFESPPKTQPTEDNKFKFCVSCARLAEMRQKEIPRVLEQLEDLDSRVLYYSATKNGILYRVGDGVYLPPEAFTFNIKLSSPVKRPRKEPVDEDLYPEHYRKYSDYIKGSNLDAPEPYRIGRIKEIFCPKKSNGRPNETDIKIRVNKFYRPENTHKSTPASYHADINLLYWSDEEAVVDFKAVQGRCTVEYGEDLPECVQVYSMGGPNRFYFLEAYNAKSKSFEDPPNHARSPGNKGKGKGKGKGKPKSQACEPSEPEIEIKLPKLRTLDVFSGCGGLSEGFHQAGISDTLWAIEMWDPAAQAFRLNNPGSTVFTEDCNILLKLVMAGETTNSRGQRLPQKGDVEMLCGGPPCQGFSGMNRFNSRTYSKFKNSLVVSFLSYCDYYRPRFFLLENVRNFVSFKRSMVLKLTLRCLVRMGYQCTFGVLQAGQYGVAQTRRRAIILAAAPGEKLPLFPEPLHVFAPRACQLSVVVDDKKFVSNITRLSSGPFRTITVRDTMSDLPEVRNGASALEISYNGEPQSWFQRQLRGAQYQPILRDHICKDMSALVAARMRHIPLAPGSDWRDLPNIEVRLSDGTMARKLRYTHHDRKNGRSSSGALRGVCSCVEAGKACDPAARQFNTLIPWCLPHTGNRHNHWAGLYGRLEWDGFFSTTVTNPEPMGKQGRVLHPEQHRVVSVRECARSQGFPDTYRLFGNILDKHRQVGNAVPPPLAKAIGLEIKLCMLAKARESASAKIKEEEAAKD
SMILES,inhibition at 10 µM [1] [%],inhibition at 32 µM [1] [%],Induction Fold (IF) of luciferase gene reporter in KG-1 CMV-Luc ([2]; 0.1 μM),Induction Fold (IF) of luciferase gene reporter in KG-1 CMV-Luc ([2]; 0.32 μM),Induction Fold (IF) of luciferase gene reporter in KG-1 CMV-Luc ([2]; 1 μM),Induction Fold (IF) of luciferase gene reporter in KG-1 CMV-Luc ([2]; 3.2 μM),Induction Fold (IF) of luciferase gene reporter in KG-1 CMV-Luc ([2]; 5 μM),Induction Fold (IF) of luciferase gene reporter in KG-1 CMV-Luc ([2]; 10 μM),"IF-24 h, KG1 CMV-Luc model [2]","DNA demethylation, KG1 CMV-Luc model [3] [%]","Chromatin accessibility, KG1 CMV-Luc model [3]","EC50 ([1]; read-out: EC50 (μM), hDNMT 1 inhibition) [µM]"
CNC(=O)N1CCc2cc(OC)c3c4c2[C@@H]1Cc1ccc(cc1)Oc1cc(ccc1OC)C[C@H]1c2cc(c(cc2CCN1C)O3)O4 [Product 44],0,15,1.1 ± 0.1,1.1 ± 0.1,1.3 ± 0.1,2.0 ± 0.1,2.5 ± 0.9,9.0 ± 1.3,5.9 ± 0.2,−53 ± 6,2.3 ± 0.2,–
CCN(CC)CCCNC(=S)N1CCc2cc3c4cc2[C@@H]1Cc1ccc(OC)c(c1)Oc1ccc(cc1)C[C@H]1c2c(cc(OC)c(c2O4)O3)CCN1C(=S)NCCCN(CC)CC [Product 41],60,99,1.1 ± 0.1,1.1 ± 0.1,1.3 ± 0.1,2.0 ± 0.3,2.8 ± 0.2,3.1 ± 0.4,3.3 ± 0.1,0,2.1 ± 0.1,11 ± 0.7
"COc1ccc2cc1Oc1ccc(cc1)C[C@@H]1NCCc3cc(OC)c4c(c31)Oc1cc3c(cc1O4)CCN(C)[C@H]3C2 [Trilobine (1), trilobine]",4,–,1.1 ± 0.1,1.9 ± 1.2,2.6 ± 1.4,3.5 ± 1.1,6.4 ± 0.1,–,5.8 ± 0.6,−37 ± 8,1.9 ± 0.1,–
